In US8735398B2 (Bristol-Myers Squibb Company, priority 2009, dated 2014):
pEC50: −log10 of the molar value. Where two headings read alike, the source gives them in different places.

Tested on: HCV 1b genotype
Test: HCV replicon assay (HCV-neo replicon cells, wild-type)
Type: cell-based, Hepatitis C virus
Conditions: HCV 1b genotype replicon
How it was run: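 Inhibition was tested in replicon-bearing cells, both wild-type HCV-neo and lines with NS5A resistance substitutions, using the O'Boyle et al. 2005 replicon method or luciferase-reporter formats.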

[1] = Hepatitis C virus, class symbol, read-out: EC50 Range against HCV 1b
[2] = Hepatitis C virus, read-out: EC50 1b
[3] = Hepatitis C virus, class symbols, read-out: EC50 Range against HCV 1b
[4] = class symbol, read-out: EC50 Range against HCV 1b

Q: With `CC(O)(C(=O)N1CCC[C@H]1C(=O)Nc1ccc(-c2ncc(-c3ccc(NC(=O)[C@@H]4CCCN4C(=O)[C@@](C)(O)c4ccccc4)cc3)o2)cc1)c1ccccc1` (stereo partly drawn) [JG-22, (2S)-1-((2S)-2-hydroxy-2-phenylpropanoyl)-N-(4-(2-(4-((((2S)-1-(2-hydroxy-2-phenylpropanoyl)-2-pyrrolidinyl)carbonyl)amino)phenyl)-1,3-oxazol-5-yl)phenyl)-2-pyrrolidinecarboxamide] as the compound, how does the pEC50 [1] read?
A: The pEC50 was > 8.34.

Q: What about the pEC50 [2] of the same compound?
A: Its pEC50 is > 8.30.

Q: How did the pEC50 [3] turn out when `CC(C)(C)O[C@@H]1C[C@@H](C(=O)Nc2ccc(-c3cnc(-c4ccc(NC(=O)[C@@H]5C[C@@H](OC(C)(C)C)CN5C(=O)C5CCC5)cc4)o3)cc2)N(C(=O)C2CCC2)C1` [XY-64, (2S,4R,2′S,4′R)-N,N′-(1,3-oxazole-2,5-diyldi-4,1-phenylene)bis(4-tert-butoxy-1-(cyclobutylcarbonyl)-2-pyrrolidinecarboxamide)] was run?
A: The pEC50 was 5.00 to 6.00.

Q: `O=C(Nc1ccc(-c2cnc(-c3ccc(NC(=O)[C@@H]4C[C@@H](O)CN4C(=O)c4ccccc4)cc3)o2)cc1)[C@@H]1C[C@@H](O)CN1C(=O)c1ccccc1` [XY-56, (2S,4R,2′S,4′R)-N,N′-(1,3-oxazole-2,5-diyldi-4,1-phenylene)bis(1-benzoyl-4-hydroxy-2-pyrrolidinecarboxamide)] was tested. Which pEC50 [3] did it give?
A: The pEC50 was 6.00 to 7.00.

Q: `O=C(Nc1ccc(-c2nnc(-c3ccc(NC(=O)[C@@H]4CCCN4C(=O)Cc4cccnc4)cc3)o2)cc1)[C@@H]1CCCN1C(=O)Cc1cccnc1` [Example D-63, (2S,2′S)-N,N′-(1,3,4-oxadiazole-2,5-diyldi-4,1-phenylene)bis[1-(3-pyridinylacetyl)-2-pyrrolidinecarboxamide]] was tested. Which pEC50 [1] did it give?
A: The pEC50 was 5.00 to 6.00.

Q: What about the pEC50 [2] of the same compound?
A: Its pEC50 is 5.71.

Q: How did the pEC50 [1] turn out when `CN(C)CC(Oc1ccc(Cl)cc1)C(=O)N1CCC[C@H]1C(=O)Nc1ccc(-c2cnc(-c3ccc(NC(=O)[C@@H]4CCCN4C(=O)C(CN(C)C)Oc4ccc(Cl)cc4)cc3)o2)cc1` (stereo partly drawn) [Example D-19, (2S,2′S)-N,N′-(1,3-oxazole-2,5-diyldi-4,1-phenylene)bis(1-(2-(4-chlorophenoxy)-3-(dimethylamino)propanoyl)-2-pyrrolidinecarboxamide)] was run?
A: Its pEC50 is 6.00 to 7.00.

Q: With `CC(C)(C)O[C@H]1CN[C@H](C(=O)Nc2ccc(-c3cnc(-c4ccc(NC(=O)[C@@H]5C[C@@H](OC(C)(C)C)CN5)cc4)o3)cc2)C1` [XY-60, (2S,4R,2′S,4′R)-N,N′-(1,3-oxazole-2,5-diyldi-4,1-phenylene)bis(4-tert-butoxy-2-pyrrolidinecarboxamide)] as the compound, how does the pEC50 [3] read?
A: The pEC50 was 5.00 to 6.00.

Q: How did the pEC50 [3] turn out when `CC(C)(C)O[C@@H]1C[C@@H](C(=O)Nc2ccc(-c3cnc(-c4ccc(NC(=O)[C@@H]5C[C@@H](OC(C)(C)C)CN5C(=O)C5CC5)cc4)o3)cc2)N(C(=O)C2CC2)C1` [XY-74, (2S,4R,2′S,4′R)-N,N′-(1,3-oxazole-2,5-diyldi-4,1-phenylene)bis(4-tert-butoxy-1-(cyclopropylcarbonyl)-2-pyrrolidinecarboxamide)] was run?
A: Its pEC50 is 6.00 to 7.00.

Q: How did the pEC50 [1] turn out when `CC(=O)N1CCC[C@H]1C(=O)Nc1ccc(-c2cnc(-c3ccc(NC(=O)C4CC(=O)N(CCc5cccs5)C4)cc3)o2)cc1` (stereo partly drawn) [MS-5, (2S)-1-acetyl-N-[4-[2-[4-[[[5-oxo-1-[2-(2-thienyl)ethyl]-3-pyrrolidinyl]carbonyl]amino]phenyl]-5-oxazolyl]phenyl]-2-pyrrolidinecarboxamide] was run?
A: Its pEC50 is 6.00 to 7.00.

Q: How did the pEC50 [4] turn out when `O=C(Nc1ccc(-c2cnc(-c3ccc(NC(=O)[C@@H]4CCCN4C(=O)C(O)c4c[nH]c5cnccc45)cc3)o2)cc1)[C@@H]1CCCN1C(=O)C(O)c1c[nH]c2cnccc12` (stereo partly drawn) [Example D-17, (2S,2′S)-N,N′-(4,4′-(oxazole-2,5-diyl)bis(4,1-phenylene))bis(1-(2-hydroxy-2-(1H-pyrrolo[2,3-c]pyridin-3-yl)acetyl)pyrrolidine-2-carboxamide)] was run?
A: Its pEC50 is 5.00 to 6.00.

Q: What about the pEC50 (read-out: EC50 1b) of the same compound?
A: The pEC50 was 5.17.

Q: How did the pEC50 [1] turn out when `O=C(Nc1ccc(-c2cnc(-c3ccc(NC(=O)[C@@H]4CCCN4C(=O)c4nc5ccccc5s4)cc3)o2)cc1)[C@@H]1CCCN1C(=O)c1nc2ccccc2s1` [JG-29, (2S,2′S)-N,N′-(1,3-oxazole-2,5-diyldi-4,1-phenylene)bis(1-(1,3-benzothiazol-2-ylcarbonyl)-2-pyrrolidinecarboxamide)] was run?
A: The pEC50 was 6.00 to 7.00.

Q: With `O=C(Nc1ccc(-c2cc(-c3ccc(NC(=O)[C@@H]4C[C@@H](O)CN4C(=O)Cc4ccccc4)cc3)[nH]n2)cc1)[C@@H]1C[C@@H](O)CN1C(=O)Cc1ccccc1` [OL-28, (2S,4R,2′S,4′R)-N,N′-(1H-pyrazole-3,5-diyldi-4,1-phenylene)bis(4-hydroxy-1-(phenylacetyl)-2-pyrrolidinecarboxamide)] as the compound, how does the pEC50 [1] read?
A: The pEC50 was 7.00 to 8.34.

Q: How did the pEC50 [1] turn out when `C[C@H](NC(=O)[C@@H](O)c1ccccc1)C(=O)Nc1ccc(-c2cnc(-c3ccc(NC(=O)[C@H](C)NC(=O)[C@@H](O)c4ccccc4)cc3)o2)cc1` [OL-54, (2S,2′S)-N,N′-(1,3-oxazole-2,5-diyldi-4,1-phenylene)bis(2-(((2S)-2-hydroxy-2-phenylacetyl)amino)propanamide)] was run?
A: The pEC50 was 7.00 to 8.34.

Q: With `Cn1cccc1C(=O)N1C[C@H](OC(C)(C)C)C[C@H]1C(=O)Nc1ccc(-c2cnc(-c3ccc(NC(=O)[C@@H]4C[C@@H](OC(C)(C)C)CN4C(=O)c4cccn4C)cc3)o2)cc1` [XY-71, (2S,4R,2′S,4′R)-N,N′-(1,3-oxazole-2,5-diyldi-4,1-phenylene)bis(4-tert-butoxy-1-((1-methyl-1H-pyrrol-2-yl)carbonyl)-2-pyrrolidinecarboxamide)] as the compound, how does the pEC50 [3] read?
A: The pEC50 was 5.00 to 6.00.

Q: Which results are given for `O=C(Nc1ccc(-c2nnc(-c3ccc(NC(=O)[C@@H]4CCCN4C(=O)[C@@H]4CCCO4)cc3)o2)cc1)[C@@H]1CCCN1C(=O)C1CCCO1` (stereo partly drawn) [Example D-60, (S,2S,2′S)-N,N′-(4,4′-(1,3,4-oxadiazole-2,5-diyl)bis(4,1-phenylene))bis(1-((S)-tetrahydrofuran-2-carbonyl)pyrrolidine-2-carboxamide)]?
A: pEC50 [1]: 6.00 to 7.00; pEC50 [2]: 6.19

Q: How did the pEC50 [1] turn out when `O=C(Nc1ccc(-c2nc[nH]c2-c2ccc(NC(=O)[C@@H]3CCCN3C(=O)c3cc4ccccc4o3)cc2)cc1)[C@@H]1CCCN1C(=O)c1cc2ccccc2o1` [JG-51, (2S,2′S)-N,N′-(1H-imidazole-4,5-diyldi-4,1-phenylene)bis(1-(1-benzofuran-2-ylcarbonyl)-2-pyrrolidinecarboxamide)] was run?
A: Its pEC50 is 6.00 to 7.00.

Q: How did the pEC50 (class symbols, read-out: EC50 Range against HCV 1b) turn out when `CN(C)C(Cc1ccc(Br)cc1)C(=O)N1CCC[C@H]1C(=O)Nc1ccc(-c2cnc(-c3ccc(NC(=O)[C@@H]4CCCN4C(=O)C(Cc4ccc(Br)cc4)N(C)C)cc3)o2)cc1` (stereo partly drawn) [JR-8, (2S)-N,N′-(4,4′-(oxazole-2,5-diyl)bis(4,1-phenylene))bis(1-(3-(4-bromophenyl)-2-(dimethylamino)propanoyl)pyrrolidine-2-carboxamide)] was run?
A: The pEC50 was 7.00 to 8.34.

Q: How did the pEC50 [1] turn out when `CC(=O)N1CCC[C@H]1C(=O)Nc1ccc(-c2ccc(-c3ccc(NC(=O)[C@@H]4CCCN4C(C)=O)cc3)s2)cc1` [OL-24, (2S,2′S)-N,N′-(2,5-thienediyldi-4,1-phenylene)bis[1-acetyl-2-pyrrolidinecarboxamide]] was run?
A: Its pEC50 is 6.00 to 7.00.

Q: What about the pEC50 [2] of the same compound?
A: Its pEC50 is 6.21.

Q: How did the pEC50 [1] turn out when `CC1(C(=O)N2CCC[C@H]2C(=O)Nc2ccc(-c3cnc(-c4ccc(NC(=O)[C@@H]5CCCN5C(=O)C5(C)CCCN5)cc4)o3)cc2)CCCN1` (stereo partly drawn) [Example D-36, (2S,2′S)-N,N′-(1,3-oxazole-2,5-diyldi-4,1-phenylene)bis(1-((2-methyl-2-pyrrolidinyl)carbonyl)-2-pyrrolidinecarboxamide)] was run?
A: Its pEC50 is 5.00 to 6.00.

Q: How did the pEC50 [1] turn out when `CC1(C(=O)N2CCC[C@H]2C(=O)Nc2ccc(-c3cnc(-c4ccc(NC(=O)[C@@H]5CCCN5C(=O)C5(C)CCC(=O)N5Cc5ccccc5)cc4)o3)cc2)CCC(=O)N1Cc1ccccc1` (stereo partly drawn) [Example D-23, (2S,2′S)-N,N′-(1,3-oxazole-2,5-diyldi-4,1-phenylene)bis(1-((1-benzyl-2-methyl-5-oxo-2-pyrrolidinyl)carbonyl)-2-pyrrolidinecarboxamide)] was run?
A: Its pEC50 is 5.00 to 6.00.

Q: How did the pEC50 [4] turn out when `CCOC(=O)c1cc(C(O)C(=O)N2CCC[C@H]2C(=O)Nc2ccc(-c3cnc(-c4ccc(NC(=O)[C@@H]5CCCN5C(=O)C(O)c5c[nH]c(C(=O)OCC)c5)cc4)o3)cc2)c[nH]1` (stereo partly drawn) [Example D-12, diethyl 4,4′-(2,2′-(2S,2′S)-2,2′-(4,4′-(oxazole-2,5-diyl)bis(4,1-phenylene))bis(azanediyl)bis(oxomethylene)bis(pyrrolidine-2,1-diyl)bis(1-hydroxy-2-oxoethane-2,1-diyl))bis(1H-pyrrole-2-carboxylate)] was run?
A: Its pEC50 is 5.00 to 6.00.

Q: And the pEC50 (read-out: EC50 1b)?
A: The pEC50 was 5.63.

Q: With `O=C(Nc1ccc(-c2cnc(-c3ccc(NC(=O)[C@@H]4CCCN4C(=O)c4cccnc4)cc3)o2)cc1)[C@@H]1CCCN1C(=O)c1cccnc1` [XY-4, (2S,2′S)-N,N′-(1,3-oxazole-2,5-diyldi-4,1-phenylene)bis(1-(3-pyridinylcarbonyl)-2-pyrrolidinecarboxamide)] as the compound, how does the pEC50 [3] read?
A: Its pEC50 is 6.00 to 7.00.

Q: `COc1cccc2c(C(=O)N3CCC[C@H]3C(=O)Nc3ccc(-c4nc[nH]c4-c4ccc(NC(=O)[C@@H]5CCCN5C(=O)c5nc(Cl)cc6c(OC)cccc56)cc4)cc3)nc(Cl)cc12` [JG-50, (2S,2′S)-N,N′-(1H-imidazole-4,5-diyldi-4,1-phenylene)bis(1-((3-chloro-5-methoxy-1-isoquinolinyl)carbonyl)-2-pyrrolidinecarboxamide)] was tested. Which pEC50 [1] did it give?
A: The pEC50 was 6.00 to 7.00.

Q: How did the pEC50 [4] turn out when `O=C(Nc1ccc(-c2ccc(-c3ccc(NC(=O)[C@@H]4CCCN4C(=O)[C@H](O)c4ccccc4)cc3)o2)cc1)[C@@H]1CCCN1C(=O)[C@H](O)c1ccccc1` [JG-57, (2S,2′S)-N,N′-(2,5-furandiyldi-4,1-phenylene)bis(1-((2R)-2-hydroxy-2-phenylacetyl)-2-pyrrolidinecarboxamide)] was run?
A: Its pEC50 is 6.00 to 7.00.

Q: `O=C(Nc1ccc(-c2ccc(-c3ccc(NC(=O)[C@@H]4CCCN4C(=O)c4nc(Cl)cc5ccccc45)cc3)o2)cc1)[C@@H]1CCCN1C(=O)c1nc(Cl)cc2ccccc12` [JG-61, (2S,2′S)-N,N′-(2,5-furandiyldi-4,1-phenylene)bis(1-((3-chloro-1-isoquinolinyl)carbonyl)-2-pyrrolidinecarboxamide)] was tested. Which pEC50 [1] did it give?
A: Its pEC50 is 5.00 to 6.00.
